Patent US10196356B2, “Mixed disulfide conjugates of thienopyridine compounds and uses thereof” (The Regents of the University of Michigan, priority 2013, dated 2019)
Like-named read-outs stand apart in the source and are kept apart here.

Legend:
[1] = Rate of formation of the AM from 2-oxoclopidogrel by HLMs in the presence of various thiol reductants; type: in vitro ADME, human; details: 0.3 mM thiol reductant; HLM, 0.1 mM 2-oxoclopidogrel
Method: The AM was produced in 0.1 ml of 50 mM KP buffer (pH 7.4) containing 0.2 mg/ml HLM, 0.1 mM 2-oxoclopidogrel, the NADPH-regenerating system, and the thiol reductants. The concentrations of the thiol reductants were 1 mM except for CPT, DFT and NPT which were 0.3 mM each. The reaction was initiated by the addition of 5 units of G6PD and incubated at 37° C. for 20 min. The active metabolite was then quantitated as the MP derivative as described in Materials and Methods. The reported rates were averaged over three separate measurements.
To examine the effects of various thiol reductants on the formation of the active metabolite (AM), the rates at which the AM was produced were determined. Production of the AM was performed in 0.1 ml of 50 mM potassium phosphate (KPi) buffer (pH 7.4) containing 0.2 mg/mL HLM, 0.1 mM 2-oxoclopidogrel, the NADPH-regenerating system, and 1 mM of each of the thiol reductants except that 0.3 mM CPT, DFT, or NPT were used. The reaction was initiated by the addition of 5 units of glucose-6-phosphate dehydrogenase (G6PD) and incubated at 37° C. for 20 min. The AM was then derivatized with 4 mM MPB at room temperature for 10 min, followed by acidification with acetic acid to 3% (v/v). For quantification, 50 pmoles of (S)-clopidogrel was added into each reaction mixture as internal standard (IS). The derivatized AM (AM-MP) was quantitated using LC-MS/MS.
The MS analyses of the reaction mixture were performed on an ion-trap mass spectrometer (LCQ DecaXP, Thermo Fisher Scientific, Waltham, Mass.) as reported previously (Zhang et al., 2012). In brief, the metabolites of 2-oxoclopidogrel were separated on a reverse phase C18 column (2×100 mm, 3 μm, Phenemonex, Calif.) using a binary mobile phase at a flow rate of 0.2 ml/min. The temperature of the C18 column was maintained at 40° C. using a column heater (Restek Corporation, Lancaster, Pa.). […] Transitions from m/z 504→m/z 354 for the AM-MP and from m/z 322→m/z 212 for the IS were used to quantitate the amount of the AM-MP based on a calibration curve consisting of various concentrations of cis-clopidogrel-MP.

[2] = Formation of mixed disulfide conjugates of clopidogrel by HLMs (Km of thiol); type: in vitro ADME, human; details: 2-oxoclopidogrel, read-out: Km for the formation of the mixed disulfide conjugate
Method: The mixed disulfide conjugates were produced by HLMs for both structural and semi-quantitative analyses. Metabolism of 2-oxoclopidogrel was performed in 0.2 ml of 50 mM KP buffer (pH 7.4) as described above except that the concentration of HLMs was increased to 1 mg/ml. The reaction was incubated at 37° C. for 30 min and then quenched by the addition of 0.1 ml of 10% of acetic acid in acetonitrile. The quenched samples were centrifuged at 13,000×g for 10 min to remove the HLMs. Aliquots of 50 μl of the supernatant were loaded onto a mass spectrometer to analyze both the active and conjugate metabolites.
The MS analyses were performed as described above except that the MS detector was operated in the dependent scan mode. The precursor ions were scanned from m/z 300-700, whereas the MS^2 spectra were obtained from m/z 100 to 700 for the four most abundant ions. For semi-quantitative analysis, 50 pmoles of the IS was spiked into each sample that had been quenched. The relative amounts of the AM and respective conjugates were calculated as the AUC ratios of the metabolites to that of the IS.

platelet aggregation = test: In vivo antiplatelet activity after intravenous injection; set-up: species or system male New Zealand (NZ) white rabbits
Method: FIG. 9 presents platelet activities of male NZ white rabbits following IV injection of (S)-clopNPT as described in Example X.
The antiplatelet activity of the mixed disulfide conjugates of clopidogrel was determined using male NZ white rabbits (1.2-1.25 kg).
To prepare intravenous solution, (S)-clopNPT was dissolved at 0.7 mg/ml in a mixture of N,N-dimethylacetamide (DMA), polyethylene glycol (PEG) 400, and saline at 5, 15 and 80 (v/v) ratio. The male NZ white rabbits were dosed at 2 mg/kg of (S)-clopNPT using two different methods. In Method 1, the intravenous solution was first mixed with 5 mM glutathione. After an incubation of 15 min at 37° C. to activate (S)-clopNPT, the mixture was intravenously injected to the rabbit via the jugular vein. In Method 2, the male NZ white rabbit was fed with 5 ml of Readisorb glutathione solution once daily for three days to increase cellular glutathione concentrations. On the third day, (S)-clopNPT dissolved in DMA/PEG400/saline was injected intravenously to the Readisorb-treated rabbit. As a negative control, (S)-clopidogrel was dosed intravenously to a male NZ white rabbit at 2 mg/kg as well. Prior to and 1 and 2 hours after dosing (S)-clopNPT, whole blood was drawn from the carotid artery into a plastic syringe containing 3.7% sodium citrate as the anticoagulant (1:10 volume ratio of citrate to blood). A whole blood cell count was determined with a Medonic CA620 hematology analyzer (Clinical Diagnostic Solutions, Inc., Plantation, Fla., USA). Platelet-rich plasma (PRP), the supernatant present after centrifugation of whole blood at 100×g for 10 min, was diluted with platelet-poor plasma (PPP) to achieve a platelet count of approximately 300,000/μl. […] Platelet aggregation was assessed by established nephelometric methods with the use of a 4-channel aggregometer (BioData PAP-4; BioData Corp., Horsham, Pa., USA) by recording the increase in light transmission through a stirred suspension of PRP maintained at 37° C. […]

[3] = tested on: platelets (P2Y12 receptor); test: Ex vivo anti-platelet activity of the mixed disulfide conjugates (ADP-induced aggregation, aggregometer); type: cell-based, New Zealand white rabbits; details: free GSH 1 mM in PRP; 10 μM ADP
Method: The mixed disulfide conjugates were prepared and purified from the reaction mixtures in the presence of 0.3 mM CPT and NPT, along with three control samples containing either 1 mM GSH, no thiol reductant or no G6PD. All samples were re-suspended in 0.5 ml PPP, some of which were treated to 1 mM GSH to release the AM. Platelet aggregation was initiated by the addition of 10 μM ADP and recorded with an aggregometer. The percentage of aggregation was normalized to that of PRP and averaged over four separate measurements. For details, see Materials and Methods. Legend: PRP, untreated platelet-rich plasma; GSH, 1 mM GSH in PRP; −G6PD, metabolites produced in the absence of G6PD; —SH, metabolites produced in the absence of any thiol reductants; GSH, metabolites produced in the presence of 1 mM GSH; CPT, metabolites produced in the presence of 0.3 mM CPT; CPT+GSH, metabolites produced in the presence of 0.3 mM CPT and then treated with 1 mM GSH; NPT, metabolites produced in the presence of 0.3 mM NPT; NPT+GSH, metabolites produced in the presence of 0.3 mM NPT and then treated with 1 mM GSH.
In order to generate sufficient quantities of the mixed disulfide conjugates, the metabolism of 2-oxoclopidogrel was performed in 2-ml reaction mixtures containing 1 mg/ml HLM, 0.1 mM 2-oxoclopidogrel, the NADPH-regenerating system, and 0.3 mM CPT or NPT or 1 mM GSH. The reaction was initiated by the addition of 10 units G6PD and incubated at 37° C. for 50 min. Two control samples were prepared in parallel. […] After an incubation of 50 min, the reaction mixtures were centrifuged at 13,000×g to remove the HLMs. The supernatants were loaded onto SPE C18 cartridges to enrich the mixed disulfide conjugates. After extensive washing with water to remove salts and other water-soluble metabolites, the conjugate samples were eluted with 2 ml of methanol. The methanolic fractions were dried using a Speedvac concentrator and the dried samples were then re-suspended in 1 ml of platelet-poor plasma (PPP). Prior to the anti-platelet activity assays, the re-suspended conjugates were divided into two equal volumes (0.5 ml each), one of which was treated with 1 mM GSH at 37° C. for 30 min to generate the AM. Both samples were then placed on ice until use.
The procedures used to determine ex vivo anti-platelet activity were previously reported (see, e.g., Abell L M and Liu E C (2011) J Pharm Exp Ther 339(2):589-596).
Male New Zealand white rabbits (2.2-2.9 kg) were used as blood donors. Whole blood was drawn from a central ear artery into a plastic syringe containing 3.7% sodium citrate as the anticoagulant (1:10 volume ratio of citrate to blood). A whole blood cell count was determined with a Medonic CA620 hematology analyzer (Clinical Diagnostic Solutions, Inc., Plantation, Fla., USA). Platelet-rich plasma (PRP), the supernatant present after centrifugation of whole blood at 100×g for 10 min, was diluted with PPP to achieve a platelet count of approximately 300,000/μl. Platelet-poor plasma was prepared by centrifuging the remaining blood at 1,500×g for 10 min and discarding the bottom cellular layer. The diluted PRP was divided into 0.5 ml samples, centrifuged again at 170×g for 10 mins, and the resulting supernatant was discarded. The platelet pellets were re-suspended in platelet-poor plasma containing the various chemical inhibitors prepared as described previously and incubated with gentle shaking at 37° C. for 60 min to modify the P2Y12 receptor. Ex vivo platelet aggregation was assessed by established nephelometric methods with the use of a 4-channel aggregometer (BioData PAP-4; BioData Corp., Horsham, Pa., USA) by recording the increase in light transmission through a stirred suspension of PRP maintained at 37° C. Platelet aggregation was induced with ADP (10 μM). A subaggregatory concentration of epinephrine (550 nM) was used to prime the platelets before addition of the agonist.

[4] = read-out: Km for GSH; previously reported (Zhang 2012); cited from earlier work

| Compound | formation of the AM (in words) [1] | Km [2] [µM] | other results |
| --- | --- | --- | --- |
| O=[N+]([O-])c1cccnc1S [NPT, 3-nitropyridine-2-thiol] | No AM was observed | 51 | – |
| COC(=O)[C@H](c1ccccc1Cl)N1CCc2sccc2C1 [(S)-clopidogrel, (+)-(S)-methyl 2-(2-chlorophenyl)-2-(6,7-dihdrothieno[3,2-c]pyridine-5(4H)-yl)acetate, reference compound] | – | – | inhibition of platelet aggregation (in words) (platelet aggregation; 2 mg/kg intravenously, blood 1 and 2 hours after dosing, 10 μM ADP): did not inhibit platelet aggregation |
| Cc1cc(S)c(C)o1 [DFT, 2,5-dimethylfuran-3-thiol] | No AM was observed | 30 | – |
| N[C@@H](CCC(=O)N[C@@H](CS)C(=O)NCC(=O)O)C(=O)O [GSH, glutathione, reference compound] | – | – | effect on platelet aggregation [3]: no effect on platelet aggregation; Km [4]: 300 µM |
| COC(=O)C(c1ccccc1Cl)N1CCC(SSc2ncccc2[N+](=O)[O-])C(=CC(=O)O)C1 [(S)-clopNPT] | – | – | inhibition of platelet activity (platelet aggregation; 2 mg/kg IV, Readisorb-treated rabbit, within one hour of IV injection): ~70%; inhibition of platelet aggregation (platelet aggregation; 2 mg/kg IV, dosed with glutathione or to Readisorb glutathione treated rabbit): more than 50% |
| Sc1ccc(Cl)nn1 [CPT, 6-chloropyridazine-3-thiol] | No AM was observed | 23 | – |
